From US6407104B1, “Pyrrolo[1,2-a]pyrazine spla2 inhibitor” (Shionogi & Co., Ltd., priority 1998, dated 2002)
pIC50: −log10 of the molar value.

Experiments:
[1] = biological target: T1, recombinant human secretory phospholipase A2 (Homo sapiens, UniProt P14555); assay: Inhibition Test of Human Secretory Phospholipase A2 (chromogenic assay); assay type: biochemical; conditions: sPLA2 50 ng/well, 40° C., 30 minutes, OD 405 nm, 96 well microtiterplate
T1 sequence (P14555 21-144): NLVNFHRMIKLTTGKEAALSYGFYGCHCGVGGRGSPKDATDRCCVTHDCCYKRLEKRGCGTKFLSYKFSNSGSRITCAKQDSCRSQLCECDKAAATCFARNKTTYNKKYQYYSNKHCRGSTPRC
Source text: Test Example: Inhibition Test of Human Secretory Phospholipase A2
In order to identify and evaluate an inhibitor of recombinant human secretory phospholipase A2, the following chromogenic assay is utilized. The assay herein has been applied for high volume screening wherein 96 well microtiterplate is used. A general explanation for such assay is described in “Analysis of Human Synovial Fluid Phospholipase A2 on Short Chain Phosphatidylcholine-Mixed Micelles: Development of a Spectrophotometric Assay Suitable for a Micortiterplate Reader” (Analytical Biochemistry, 204, pp 190-197, 1992 by Laure. J. Reynolds. Lori L. Hughes and Edward A. Dennis: the disclosure of which is incorporated herein for reference.
pH 7.5 (adjusted with NaOH)
pH 4.5 (adjusted with acetic acid)
1 mg of sPLA2 is dissolved in 1 ml of an enzyme buffer. Thereafter, the solution is maintained at 4° C.
In the assay, 5 μl of the solution is diluted with 1995 μl of the reaction buffer to be used.
198 mg of 5,5′-dithiobis-2-[…] (manufactured by Wako Pure Chemicals) is dissolved in 100 ml of H2O
H 7.5 (adjusted with NaOH)
100 mg of racemic 1,2-bis(heptanoylthio)-1,2-dideoxy-sn-glycero-3-phospholylcholine is dissolved in 1 ml of chloroform.
624.9 mg of Triton-X 100 is dissolved in the reaction buffer.
Enzyme Reaction: for 1 Plate of Microtiterplate
1) 0.106 ml of the substrate solution is put in a centrifugal tube, and nitrogen gas is jetted to remove the solvent. 0.54 ml of Triton-X 100 is added thereto, the mixture is stirred, thereafter it is sonified in a bath type sonification to dissolve. To the resulting product are added 17.8 ml of the reaction buffer and 0.46 ml of DTNB, and 0.18 ml each of the admixture is poured to wells of the 96 well microtiterplate.
2) 10 μl of a test compound (or solvent blank) are added in accordance with alignment of plates which has been previously set.
3) Incubation is effected at 40° C. for 15 minutes.
4) 20μl of an enzyme solution (sPLA2) which has been previously diluted (50 ng/well) are added to start reaction (40° C., 30 minutes).
5) Changes in absorbancy for 30 minutes are measured by a plate reader, and inhibition activity was calculated (OD: 405 nm).
6) IC50 was determined by plotting log concentration with respect to inhibition values within 10% to 90% inhibiting range.

| Structure (SMILES) | pIC50 [1] | melting point [°C] |
| --- | --- | --- |
| CCc1c(C(=O)C(N)=O)c2c(OCC(=O)O)nc(C)cn2c1Cc1csc2ccccc12 [Compound I-88] | 8.10 | 211 to 213 |
| CCOC(=O)COc1nc(C)cn2c(Cc3ccc(F)cc3)c(CC)c(C(=O)C(N)=O)c12 [Compound I-89] | 6.50 | 184 to 186 |
| CCOC(=O)COc1nc(C)cn2c(Cc3ccccc3-c3ccc(F)cc3)c(CC)c(C(=O)C(N)=O)c12 [Compound I-90] | 7.42 | 172 to 173 |
| CCCOC(=O)COc1nc(C)cn2c(Cc3ccc(F)cc3)c(CC)c(C(=O)C(N)=O)c12 [Compound I-93] | 6.55 | 182 to 183 |
| CCCCCOC(=O)COc1nc(C)cn2c(Cc3ccc(F)cc3)c(CC)c(C(=O)C(N)=O)c12 [Compound I-94] | 6.19 | 175 to 176 |

More lines, in order of rising pIC50 [1], values ahead:

| pIC50 [1] | melting point [°C] | Structure (SMILES) |
| --- | --- | --- |
| 6.76 | 139 to 140 | CCc1c(C(=O)C(N)=O)c2c(OCC(=O)OCCN3CCOCC3)nc(C)cn2c1Cc1ccc(F)cc1 [Compound I-95] |
| 7.12 | 185 to 186 | CCOC(=O)COc1nc(C)cn2c(Cc3ccccc3-c3ccsc3)c(CC)c(C(=O)C(N)=O)c12 [Compound I-92] |
| 7.32 | 160 to 161 | CCOC(=O)COc1nc(C)cn2c(Cc3ccccc3-c3cccs3)c(CC)c(C(=O)C(N)=O)c12 [Compound I-91] |
